system: Plasmodium falciparum; assay: GSK_TCMDC: Inhibition of Plasmodium falciparum 3D7 in whole erythrocytes, using parasite LDH activity as an index of growth.; format: functional, organism-based; settings: Plasmodium falciparum, 3D7

Structure (SMILES) | XC50
COc1ccc2c(N/N=C/c3ccccc3[N+](=O)[O-])cc(C)nc2c1 | 716 nM
O=C(Nc1n[nH]c2nc(-c3ccco3)c(Br)cc12)c1ccc(CN2CCCC2)cc1 | 791 nM
Cc1[nH]c2ccccc2c1C(=O)C(C)Sc1nnc(-c2ccccc2Br)[nH]1 (stereo not drawn) | 34.8 nM
O=C(/C=C/c1ccc(Cl)c(Cl)c1)NC1CCN(CCNC(=O)c2cccc(Cl)c2)CC1 | 550 nM
COc1cc2c(cc1OCCN1CCC(N3CCCC3)CC1)N(C(=O)/C=C/c1ccccc1Cl)CC2 | 659 nM
COCc1cccc(-c2cc(-c3ccc(S(C)(=O)=O)cc3)cnc2N)c1 | 1000 nM
Nc1ccc(-c2ccc(NC(=O)Nc3cc(C(F)(F)F)ccc3F)cc2)cn1 | 657 nM
N=c1n(Cc2ccccc2)c2ccccc2n1CC(O)c1ccc(Cl)cc1 (stereo not drawn) | 879 nM
Cc1ccc(NC(=O)c2cc(Br)cc(N3CCCN(C)CC3)c2)cc1F | 1340 nM
CC(C)(Oc1ccc(Cl)cc1)C(=O)NCCC1CCN(CCCCCNC(=O)/C=C/c2ccc(Cl)c(Cl)c2)CC1 | 936 nM
Cc1ccc(F)c(OCC2CCN(c3ncc(C(=O)NC4CC4)cc3Cl)CC2)c1 | 902 nM
O=C(/C=C/c1ccc(Cl)c(Cl)c1)NCCCCCN1CCC(CCCNC(=O)Nc2ccc(C(F)(F)F)cc2)CC1 | 872 nM
Cc1cccc(C(=O)Nc2ccnc(N(C)CCCN(C)Cc3cccc(C#N)c3)c2)c1 | 1320 nM
CC(CCc1ccccc1)NCC(O)c1ccc2c3c(cccc13)C(=O)N2C (stereo not drawn) | 812 nM
CCOC(=O)C(C)(C)Oc1ccc(C(=C2CC(C)(C)CC(C)(C)C2)c2ccc(O)cc2)cc1 | 1130 nM
CC(CCc1ccccc1)NCC(O)c1cccc([N+](=O)[O-])c1 (stereo not drawn) | 858 nM
O=C(NCCc1ccccc1)c1cc(-c2cccnc2)cnc1NCC1CC1 | 847 nM
CNCCN(C)C(=O)Oc1c(Cl)c(C)nc(C)c1-c1ccc(Oc2ccc(OC(F)(F)F)cc2)cc1 | 127 nM
CCC(C)NC(=O)Cn1c2ncccc2c(=O)n1-c1ccc(C)cc1 (stereo not drawn) | 1260 nM
CN(C)c1ccc(CN2CCC(NC(=O)c3ccc(-c4ccccc4F)s3)CC2)cc1 | 1120 nM
CCCNC(=O)c1ccc(N2CCC(c3ccccc3C)CC2)nc1 | 1520 nM
O=C(Nc1ccc(N2CCCCC2)c(Cl)c1)c1nc[nH]n1 | 449 nM
O=C(Nc1ccc(Cn2ncc(N3CCCNCC3)c(Cl)c2=O)cc1)Nc1ccc(C(F)(F)F)cc1 | 731 nM
CCN(CC)CCCN(CCCN(CC)CC)c1cc(C)nc(Nc2ccc(Cl)cc2)n1 | 211 nM
O=C(O)C1CC(=O)N(c2ccc(Cl)cc2)C1 (stereo not drawn) | 219 nM

Structure (SMILES) | XC50
N=C(N)NN=CC(=O)Nc1ccc(C(F)(F)F)cc1 | 932 nM
CSC1=NC(=Nc2c(C)cccc2C)C2(CCCCC2)N1c1ccccc1Cl | 817 nM
CC(C)NCc1ccc(-c2ccc(NS(=O)(=O)c3cccc4cccnc34)cc2)cc1 | 807 nM
COc1ccc(-c2cnc(N)c(-c3nc4cc(Br)ccc4[nH]3)c2)cc1 | 1560 nM
O=C(Nc1ccc(-c2cccc(-c3nc4cc(F)ccc4[nH]3)c2)cc1)Nc1ccc(Cl)c(Cl)c1 | 647 nM
COc1ccc(C=NNc2cc(C)nc3ccc(OC)cc23)c(OC)c1 | 778 nM
Oc1ccc(CN2CCN(CCOC(c3ccccc3)c3ccccc3)CC2)cc1Cl | 806 nM
CN(CCN(C)CC(O)c1ccc(Cl)c(Cl)c1)CC(O)c1ccc(Cl)c(Cl)c1 (stereo not drawn) | 1100 nM
Cn1nc(C(F)(F)F)c(-c2ccc(F)cc2)c1NC(=O)Nc1ccccc1 | 804 nM
CN(C)c1ccc2c(c1)Sc1cc(N(C)C)ccc1N2C(=O)CCCC(=O)O | 802 nM
Cc1noc(C)c1-c1ccc(C(=C2CCCCCC2)c2ccc(O)cc2)cc1 | 189 nM
CC[C@H]1CN2CC[C@H]1C[C@H]2[C@H](O)c1cc(N2CCCC(C(=O)N(CC)CC)C2)nc2ccc(OC)cc12 (stereo partly drawn) | 73.1 nM
O=C(Nc1ccc(-c2ccc(-c3nc4cc(C(F)(F)F)ccc4[nH]3)s2)cc1)c1ccoc1 | 854 nM
O=C(CN1CCC(NCc2cnc(-c3ccc(Cl)cc3)[nH]2)CC1)N1CCc2ccccc21 | 650 nM
COc1ccccc1/C=C/C(=O)N(C)C1CCN(CCCCCNC(=O)/C=C/c2ccc(Cl)c(Cl)c2)CC1 | 438 nM
CC(Cc1ccc(OCc2ccccc2)cc1)Nc1nc(O)c2ccccc2n1 (stereo not drawn) | 568 nM
COc1ccccc1-c1csc(C(=O)NCC2CCN(Cc3ccc(C(C)(C)C)cc3)C2)c1 (stereo not drawn) | 1110 nM
CCNc1cc(C)nc(Nc2ccc(NC(=O)c3c(F)cccc3Cl)cc2)n1 | 1120 nM
O=C(/C=C/c1ccc(Cl)c(Cl)c1)NCCCCCN1CCC(NC(=O)Nc2ccc(Br)cc2)CC1 | 567 nM
CNC(=O)c1cnc(Nc2ccc(N3CCN(C)CC3)cc2)nc1Nc1cccc(OC)c1 | 752 nM
CCOC(=O)c1c(C)n(-c2ccccc2)c2ccc(OC(=O)COc3ccc(Cl)cc3Cl)cc12 | 429 nM
O=C(/C=C/c1ccc(Cl)c(Cl)c1)NCCCCCN1CCC(NC(=O)Nc2ccc([N+](=O)[O-])cc2)CC1 | 686 nM
COc1ccc(CCN(C)CCCCc2ccc(NC(=O)c3cccc4c(=O)c5cc(F)ccc5sc34)cc2)cc1OC | 897 nM
O=C(NCCCNc1nc2ccccc2[nH]1)c1cccc(OC(F)(F)F)c1 | 566 nM
CC(C)CNCc1ccc(-c2cccc(CN(C(=O)NCCc3ccccc3)C3CCN(Cc4ccccc4)CC3)c2)cc1 | 579 nM

Structure (SMILES) | XC50
CCc1ccc(Cc2cnc3nc(N)nc(N)c3c2C)cc1 | 202 nM
CC(C)CNCc1cccc(-c2ccc(CN(CCCN3CCN(C)CC3)C(=O)/C=C/c3ccccc3)cc2)c1 | 857 nM
NC(=O)c1ccccc1OCC(=O)Nc1cccc(-c2ccc(-c3nc4ccccc4[nH]3)cc2)c1 | 786 nM
Cc1cc(OCC2CCCN(c3ncc(C(=O)NC4CC4)cc3Cl)C2)ccc1F (stereo not drawn) | 1490 nM
Cc1[nH]c2c(C)cc(NS(C)(=O)=O)cc2c1C1CCN(CC2CCN(C(=O)/C=C/c3ccc(Cl)c(Cl)c3)CC2)CC1 | 241 nM
O=C(/C=C/c1ccc(Cl)c(Cl)c1)NCCC(CN1CCC(c2c[nH]c3ccccc23)CC1)c1ccccc1 (stereo not drawn) | 570 nM
Cc1ccc(NS(=O)(=O)c2ccc(C(C)N3CCC(N4CCCCC4)CC3)cc2)cc1C (stereo not drawn) | 763 nM
CN(C)C(=O)CN1CCN(c2ncnc(N3CCc4c([nH]c5ccccc45)[C@@H]3c3ccc4c(c3)CCO4)n2)CC1 | 871 nM
CCN(CC)CCCOC(=O)c1ccc2c(c1)-c1ccc(C(=O)OCCCN(CC)CC)c3cccc-2c13 | 933 nM
COc1cccc(-c2cnc(N)c(-c3nc4ccc(C(F)(F)F)cc4[nH]3)c2)c1 | 652 nM
Cc1cc(N[C@@H](CC(C)C)C(=O)Nc2ccccc2)nc(NCC2CCCCC2)n1 | 874 nM
FC(F)(F)c1ccc(COc2cc(Cl)ccc2Cn2ccnc2)cc1 | 649 nM
CC(C)C[C@H](NC(=O)c1ccc(OCCN2CCOCC2)cc1)C(=O)N[C@H](/C=N/N1CCN(C)C1=O)CCc1ccccc1 | 294 nM
Cc1cc(NC(=O)c2ccco2)ccc1OC1CCN(Cc2ccc(F)cc2)CC1 | 588 nM
COc1cccc(NC(=O)Nc2cc(-c3ccc4[nH]ncc4c3)cc3c2CNC3=O)c1 | 117 nM
CN1CCC(NCc2ccc(-c3ccc(S(=O)(=O)NCc4ccccc4)cc3)cc2)CC1 | 832 nM
COc1ccc(C2CC(=O)C3=C(C2)NC(C)=C(C(=O)OC(C)C)C3c2ccc(O)cc2)cc1OC (stereo not drawn) | 278 nM
COc1cccc(C(O)CNc2ccnc(Nc3cccc(-c4csc(C)n4)c3)n2)c1 (stereo not drawn) | 786 nM
NC1CCCN(Cc2cccc(-c3ccc(-c4nc5ccccc5[nH]4)s3)c2)C1 (stereo not drawn) | 585 nM
CC(C)(C)c1ccc(CN2CCC(NC(=O)c3ccc(-c4cccc(Cl)c4)s3)CC2)cc1 | 1070 nM
CCCCCCOc1ccc(C(=O)NCCC2CCN(CCCCCNC(=O)C=Cc3ccc(Cl)c(Cl)c3)CC2)cc1 | 656 nM
O=C(Nc1cccc(-c2nn3ncccc3c2-c2ccnc(Nc3cccc(C(F)(F)F)c3)n2)c1)c1c(F)cccc1F | 648 nM
CC(C)c1ccc(Cn2cc(-c3ccncc3)c3cc(OCc4ccccc4)ccc32)cc1 | 706 nM
CCc1c(C)nc(-n2nc(C)cc2NC(=O)CCc2ccccc2)[nH]c1=O | 752 nM
CCOC(=O)CNC(=O)N1CCN(C(=O)NCC(=O)OCC)CC1 | 848 nM

Structure (SMILES) | XC50
Cc1ccc(Nc2ccnc(Nc3ccc(C)c(F)c3)n2)cc1O | 761 nM
O=[N+]([O-])c1ccc(-n2nc(Cc3ccccc3)n(Cc3cccc(F)c3)c2=S)c(C(F)(F)F)c1 | 769 nM
Cc1cc(=NN=Cc2ccccc2Cl)c2ccc(F)cc2[nH]1 | 257 nM
Cn1c(NC2CCN(CC3CCN(C(=O)/C=C/c4ccc(Cl)c(Cl)c4)CC3)CC2)nc2ccccc21 | 148 nM
O=C(Nc1ccc(CN2CCOCC2)cc1)c1ccc(-c2ccc(Br)cc2)o1 | 1120 nM
COc1nc(N)ncc1C(=O)NC1CN2CCC1CC2 (stereo not drawn) | 235 nM
Cc1cc(N(C)C)nc(Nc2ccc(NC(=O)c3cccc(F)c3)cc2)n1 | 998 nM
COc1cccc2cc(C(=O)N[C@@H](CC(C)C)C(=O)N[C@H](/C=N/NC(=O)N3CCN(C)CC3)CCc3ccccc3)oc12 | 616 nM
CCOc1cc(OCC)c2ccccc2c1CNCCCCCCNCc1c(OCC)cc(OCC)c2ccccc12 | 305 nM
Clc1ccc(CNc2nc(NCCc3c[nH]cn3)nc(NC3CCCCC3)n2)cc1 | 209 nM
O=C(Nc1cccc(CN2CCCN(Cc3cccnc3)CC2)c1)c1ccc(Cl)c(Cl)c1 | 928 nM
CCCCc1ccc(-c2nc(NC(=O)Nc3[nH]c(-c4ccccc4)nc3C(=O)OCC)c(C(=O)OCC)[nH]2)cc1 | 752 nM
CC(NCC(O)Cn1c2ccccc2c2ccccc21)c1ccccc1 (stereo not drawn) | 931 nM
Cc1nc2nc(N)nc(N)c2c(C)c1Cc1ccccc1 | 248 nM
O=c1cc(NCCCNCc2cc3ccccc3s2)[nH]c2ccccc12 | 1270 nM
N#Cc1cnc(Nc2ccc(Oc3ccccc3)cc2)nc1Nc1cccc(S(N)(=O)=O)c1 | 555 nM
Cc1cc(C(=O)Nc2ccc(-c3nc4ccccc4[nH]3)cc2)ccc1[N+](=O)[O-] | 671 nM
Cc1[nH]c2c(C)cccc2c1C1CCN(CCC2CCN(C(=O)/C=C/c3ccc(Cl)c(Cl)c3)CC2)CC1 | 636 nM
CN(CC(=O)Nc1ccc(F)cc1)C(=O)c1ccc(-c2ccc(F)cc2)o1 | 934 nM
COc1ccc(-c2cnc(N)nc2N)cc1Cl | 1400 nM
CN(C)c1ccc(-c2csc(C(=O)NCC3CCN(CC4CCCCC4)C3)c2)cc1 (stereo not drawn) | 1140 nM
CCN(CCCN1CCCCC1)c1cc(C)nc(Nc2ccc(Oc3ccccc3)cc2)n1 | 298 nM
COc1ccc(C=CC(=O)N2CCC(CN3CCC(c4c[nH]c5ccccc45)CC3)CC2)cc1OC | 1070 nM

Reference: ChEMBL document CHEMBL1157539, “Thousands of chemical starting points for antimalarial lead identification” (Nature, 2010)
